Assay results published in patent publication US6429312B2, “N-aminoalkyldibenzothiopencarboxamide receptor subtype specific ligands” (Neurogen Corporation, priority 1996, dated 2002).
Structures can show the parent of a compound that is named as a salt. Where two headings read alike, the source gives them in different places. Values belong to the molecule of their own block, whether it stands above or below them.

Legend:
D2 receptors = target: T1, D2 receptors (Chlorocebus aethiops, UniProt P52702); assay: D2 receptor binding assay (3H-YM 09151-2 displacement); set-up: species or system African Green monkey
T1 construct: expressed in transfected cells; host or cells: COS cells
T1 sequence (P52702 whole entry): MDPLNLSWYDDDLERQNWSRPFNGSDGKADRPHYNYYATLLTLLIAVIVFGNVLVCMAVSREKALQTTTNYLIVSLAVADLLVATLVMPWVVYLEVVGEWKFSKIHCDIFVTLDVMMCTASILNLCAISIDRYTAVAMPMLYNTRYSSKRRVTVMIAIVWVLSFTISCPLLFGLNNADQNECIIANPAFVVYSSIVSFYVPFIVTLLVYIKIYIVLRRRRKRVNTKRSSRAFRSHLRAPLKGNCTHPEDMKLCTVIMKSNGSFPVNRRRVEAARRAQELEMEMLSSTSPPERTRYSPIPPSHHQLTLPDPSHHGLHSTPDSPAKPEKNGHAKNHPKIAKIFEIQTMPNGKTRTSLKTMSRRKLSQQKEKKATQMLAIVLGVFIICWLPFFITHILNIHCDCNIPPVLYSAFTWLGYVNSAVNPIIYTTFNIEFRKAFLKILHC
Procedure: (§1) ASSAY FOR D2 AND D3 RECEPTOR BINDING ACTIVITY
(§2) Pellets of COS cells containing recombinantly produced D2 or D3 receptors from African Green monkey were used for the assays. The sample is homogenized in 100 volumes (w/vol) of 0.05 M Tris HCl buffer at 4° C. and pH 7.4. The sample is then centrifuged at 30,000×g and resuspended and rehomogenized. The sample is then centrifuged as described and the final tissue sample is frozen until use. The tissue is resuspended 1:20 (wt/vol) in 0.05 M Tris HCl buffer containing 100 mM NaCl.
(§3) Incubations are carried out at 48° C. and contain 0.4 ml of tissue sample, 0.5 nM ^3H-YM 09151-2 and the compound of interest in a total incubation of 1.0 ml. Nonspecific binding is defined as that binding found in the presence of […] spiperone; without further additions, nonspecific binding is less than 20% of total binding. The binding characteristics of representative compounds of the invention for D2 and D3 receptor subtypes are shown in Table 2 for rat striatal homogenates.

D3 receptors = target: T2, D3 receptors (Chlorocebus aethiops, UniProt P52703); assay: D3 receptor binding assay (3H-YM 09151-2 displacement); set-up: species or system African Green monkey
T2 construct: expressed in transfected cells; host or cells: COS cells
T2 sequence (P52703 whole entry): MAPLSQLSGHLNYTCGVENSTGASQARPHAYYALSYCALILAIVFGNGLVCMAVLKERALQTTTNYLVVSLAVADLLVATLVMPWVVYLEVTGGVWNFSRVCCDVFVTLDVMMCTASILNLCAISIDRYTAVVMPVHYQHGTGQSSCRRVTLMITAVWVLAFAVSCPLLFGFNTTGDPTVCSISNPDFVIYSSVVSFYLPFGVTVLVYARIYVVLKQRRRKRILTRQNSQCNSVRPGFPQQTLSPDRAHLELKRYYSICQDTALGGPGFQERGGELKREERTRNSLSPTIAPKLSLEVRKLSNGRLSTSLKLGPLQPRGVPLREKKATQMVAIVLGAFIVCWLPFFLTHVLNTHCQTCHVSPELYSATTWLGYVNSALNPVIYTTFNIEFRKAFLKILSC
Procedure: as §1, §2, §3

melting point: 225 to 228 °C
Compound: O=C(NCCCCN1CCN(c2cccc3ccccc23)CC1)c1ccc2sc3ccccc3c2c1 (as salt: hydrochloride) [Compound 2, N-(1-{4-[4-(1-Naphthyl)piperazin-1-yl]}butyl)-2-dibenzothiophenecarboxamide hydrochloride]

Compound: O=C(NCCCCN1CCN(c2cccc(Cl)c2Cl)CC1)c1ccc2sc3ccccc3c2c1 [Compound 1, N-(1-{4-[4-(2,3-Dichlorophenyl)piperazin-1-yl]}butyl)-2-dibenzothiophenecarboxamide hydrochloride]
Ki (D2 receptors): 285 nM
Ki (D3 receptors): 3.5 nM

Ki (D2 receptors; COS cells containing recombinantly produced D2 receptors, 0.5 nM 3H-YM 09151-2, nonspecific binding with 1 mM spiperone, read-out: D2 Ki): 242 nM
Ki (D3 receptors; COS cells containing recombinantly produced D3 receptors, 0.5 nM 3H-YM 09151-2, nonspecific binding with 1 mM spiperone, read-out: D3 Ki): 5 nM
Compound: O=C(NCCCCN1CCN(c2cccc3ccccc23)CC1)c1ccc2sc3ccccc3c2c1 [Compound 2, N-(1-{4-[4-(1-Naphthyl)piperazin-1-yl]}butyl)-2-dibenzothiophenecarboxamide hydrochloride]
